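These data come from cells grown in 96-well plates and exposed to compound for 48 hours at five concentrations. TGI is the concentration that stops growth completely.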
Key:
Experiment in all cases: NCI anticancer screen, dose series, 48 h
786-0 renal = test system: 786-0 renal
A549 NSCLC = test system: A549 NSCLC
ACHN renal = test system: ACHN renal
CAKI-1 renal = test system: CAKI-1 renal
CCRF-CEM leukemia = test system: CCRF-CEM leukemia
COLO 205 colon = test system: COLO 205 colon
DU-145 prostate = test system: DU-145 prostate
EKVX NSCLC = test system: EKVX NSCLC
HCC-2998 colon = test system: HCC-2998 colon
HCT-116 colon = test system: HCT-116 colon
HCT-15 colon = test system: HCT-15 colon
HL-60(TB) leukemia = test system: HL-60(TB) leukemia
HOP-62 NSCLC = test system: HOP-62 NSCLC
HOP-92 NSCLC = test system: HOP-92 NSCLC
HS 578T breast = test system: HS 578T breast
HT29 colon = test system: HT29 colon
IGROV1 ovarian = test system: IGROV1 ovarian
K-562 leukemia = test system: K-562 leukemia
KM12 colon = test system: KM12 colon
LOX IMVI melanoma = test system: LOX IMVI melanoma
M14 melanoma = test system: M14 melanoma
MALME-3M melanoma = test system: MALME-3M melanoma
MCF7 breast = test system: MCF7 breast
MDA-MB-231 breast = test system: MDA-MB-231 breast
MDA-MB-435 = test system: MDA-MB-435
MDA-N = test system: MDA-N
MOLT-4 leukemia = test system: MOLT-4 leukemia
NCI-H226 lung = test system: NCI-H226 lung
NCI-H23 lung = test system: NCI-H23 lung
NCI-H460 lung = test system: NCI-H460 lung
NCI-H522 lung = test system: NCI-H522 lung
NCI/ADR-RES ovarian = test system: NCI/ADR-RES ovarian
OVCAR-3 ovarian = test system: OVCAR-3 ovarian
OVCAR-4 ovarian = test system: OVCAR-4 ovarian
OVCAR-5 ovarian = test system: OVCAR-5 ovarian
OVCAR-8 ovarian = test system: OVCAR-8 ovarian
PC-3 prostate = test system: PC-3 prostate
RPMI-8226 leukemia = test system: RPMI-8226 leukemia
SF-268 CNS = test system: SF-268 CNS
SF-295 CNS = test system: SF-295 CNS
SF-539 CNS = test system: SF-539 CNS
SK-MEL-2 melanoma = test system: SK-MEL-2 melanoma
SK-MEL-28 melanoma = test system: SK-MEL-28 melanoma
SK-MEL-5 melanoma = test system: SK-MEL-5 melanoma
SN12C renal = test system: SN12C renal
SNB-19 CNS = test system: SNB-19 CNS
SNB-75 CNS = test system: SNB-75 CNS
SR leukemia = test system: SR leukemia
SW-620 colon = test system: SW-620 colon
T-47D breast = test system: T-47D breast
TK-10 renal = test system: TK-10 renal
U251 CNS = test system: U251 CNS
UACC-257 melanoma = test system: UACC-257 melanoma
UO-31 renal = test system: UO-31 renal
A498 renal = test system: A498 renal
RXF 393 renal = test system: RXF 393 renal
SK-OV-3 ovarian = test system: SK-OV-3 ovarian

Cc1occc(=O)c1O
TGI (786-0 renal): > 100 µM | TGI (A549 NSCLC): > 100 µM | TGI (ACHN renal): > 100 µM | TGI (CAKI-1 renal): > 100 µM | TGI (CCRF-CEM leukemia): > 100 µM | TGI (COLO 205 colon): > 100 µM | TGI (DU-145 prostate): > 100 µM | TGI (EKVX NSCLC): > 100 µM | TGI (HCC-2998 colon): > 100 µM | TGI (HCT-116 colon): > 100 µM | TGI (HCT-15 colon): 28.7 µM | TGI (HL-60(TB) leukemia): > 100 µM | TGI (HOP-62 NSCLC): > 100 µM | TGI (HOP-92 NSCLC): > 100 µM | TGI (HS 578T breast): > 100 µM | TGI (HT29 colon): > 100 µM | TGI (IGROV1 ovarian): > 100 µM | TGI (K-562 leukemia): > 100 µM | TGI (KM12 colon): > 100 µM | TGI (LOX IMVI melanoma): > 100 µM | TGI (M14 melanoma): > 100 µM | TGI (MALME-3M melanoma): > 100 µM | TGI (MCF7 breast): > 100 µM | TGI (MDA-MB-231 breast): 16.4 µM | TGI (MDA-MB-435): > 100 µM | TGI (MDA-N): > 100 µM | TGI (MOLT-4 leukemia): > 100 µM | TGI (NCI-H226 lung): > 100 µM | TGI (NCI-H23 lung): > 100 µM | TGI (NCI-H460 lung): > 100 µM | TGI (NCI-H522 lung): > 100 µM | TGI (NCI/ADR-RES ovarian): > 100 µM | TGI (OVCAR-3 ovarian): > 100 µM | TGI (OVCAR-4 ovarian): > 100 µM | TGI (OVCAR-5 ovarian): > 100 µM | TGI (OVCAR-8 ovarian): > 100 µM | TGI (PC-3 prostate): > 100 µM | TGI (RPMI-8226 leukemia): > 100 µM | TGI (SF-268 CNS): > 100 µM | TGI (SF-295 CNS): > 100 µM | TGI (SF-539 CNS): > 100 µM | TGI (SK-MEL-2 melanoma): > 100 µM | TGI (SK-MEL-28 melanoma): > 100 µM | TGI (SK-MEL-5 melanoma): > 100 µM | TGI (SN12C renal): 24.8 µM | TGI (SNB-19 CNS): > 100 µM | TGI (SNB-75 CNS): > 100 µM | TGI (SR leukemia): > 100 µM | TGI (SW-620 colon): > 100 µM | TGI (T-47D breast): > 100 µM | TGI (TK-10 renal): > 100 µM | TGI (U251 CNS): > 100 µM | TGI (UACC-257 melanoma): > 100 µM | TGI (UO-31 renal): > 100 µM

CC(C)=CCC/C(C)=C\CC/C(C)=C/CO
TGI (786-0 renal): 31.1 µM | TGI (A549 NSCLC): > 100 µM | TGI (ACHN renal): 70.7 µM | TGI (CAKI-1 renal): > 10 µM | TGI (CCRF-CEM leukemia): 43.7 µM | TGI (COLO 205 colon): > 100 µM | TGI (DU-145 prostate): > 100 µM | TGI (EKVX NSCLC): > 100 µM | TGI (HCC-2998 colon): 43.1 µM | TGI (HCT-116 colon): 36.9 µM | TGI (HCT-15 colon): > 100 µM | TGI (HL-60(TB) leukemia): 35.4 µM | TGI (HOP-62 NSCLC): 40.3 µM | TGI (HOP-92 NSCLC): 22.7 µM | TGI (HS 578T breast): 67.9 µM | TGI (HT29 colon): 37.6 µM | TGI (IGROV1 ovarian): 55.9 µM | TGI (K-562 leukemia): 42.2 µM | TGI (KM12 colon): > 100 µM | TGI (LOX IMVI melanoma): > 10 µM | TGI (M14 melanoma): 37.2 µM | TGI (MALME-3M melanoma): 32.3 µM | TGI (MCF7 breast): 38.2 µM | TGI (MDA-MB-231 breast): > 100 µM | TGI (MDA-MB-435): 38.3 µM | TGI (MDA-N): > 100 µM | TGI (MOLT-4 leukemia): 42.9 µM | TGI (NCI-H226 lung): > 100 µM | TGI (NCI-H23 lung): 62.2 µM | TGI (NCI-H460 lung): > 10 µM | TGI (NCI-H522 lung): 27.2 µM | TGI (NCI/ADR-RES ovarian): 42.6 µM | TGI (OVCAR-3 ovarian): 30.4 µM | TGI (OVCAR-4 ovarian): 50.4 µM | TGI (OVCAR-5 ovarian): > 100 µM | TGI (OVCAR-8 ovarian): 48.7 µM | TGI (PC-3 prostate): > 100 µM | TGI (RPMI-8226 leukemia): 36.9 µM | TGI (SF-268 CNS): > 100 µM | TGI (SF-295 CNS): 57.2 µM | TGI (SF-539 CNS): 47.8 µM | TGI (SK-MEL-2 melanoma): 30.4 µM | TGI (SK-MEL-28 melanoma): > 100 µM | TGI (SK-MEL-5 melanoma): 61.8 µM | TGI (SN12C renal): > 100 µM | TGI (SNB-19 CNS): 65.6 µM | TGI (SNB-75 CNS): > 100 µM | TGI (SR leukemia): 47.6 µM | TGI (SW-620 colon): > 100 µM | TGI (T-47D breast): > 100 µM | TGI (TK-10 renal): > 100 µM | TGI (U251 CNS): 33.3 µM | TGI (UACC-257 melanoma): > 100 µM | TGI (UO-31 renal): > 100 µM

CCCCCCCCCCCC1=NCCN1
TGI (A498 renal): 43.2 µM | TGI (A549 NSCLC): > 100 µM | TGI (ACHN renal): > 100 µM | TGI (CCRF-CEM leukemia): 75.4 µM | TGI (COLO 205 colon): 35.4 µM | TGI (DU-145 prostate): > 100 µM | TGI (HCC-2998 colon): 39 µM | TGI (HCT-116 colon): > 100 µM | TGI (HCT-15 colon): 32.7 µM | TGI (HOP-92 NSCLC): > 100 µM | TGI (HS 578T breast): > 100 µM | TGI (HT29 colon): > 100 µM | TGI (K-562 leukemia): > 100 µM | TGI (KM12 colon): > 100 µM | TGI (LOX IMVI melanoma): 22.9 µM | TGI (M14 melanoma): > 100 µM | TGI (MCF7 breast): > 100 µM | TGI (MDA-MB-231 breast): 68.9 µM | TGI (MDA-MB-435): > 100 µM | TGI (MDA-N): > 100 µM | TGI (MOLT-4 leukemia): 60.5 µM | TGI (NCI-H226 lung): > 100 µM | TGI (NCI-H23 lung): > 100 µM | TGI (NCI-H460 lung): > 100 µM | TGI (NCI-H522 lung): 67.5 µM | TGI (NCI/ADR-RES ovarian): > 100 µM | TGI (OVCAR-3 ovarian): > 100 µM | TGI (OVCAR-4 ovarian): 38.7 µM | TGI (OVCAR-8 ovarian): > 100 µM | TGI (PC-3 prostate): 44.1 µM | TGI (RXF 393 renal): > 100 µM | TGI (SF-268 CNS): > 100 µM | TGI (SF-295 CNS): > 100 µM | TGI (SK-MEL-28 melanoma): > 100 µM | TGI (SK-MEL-5 melanoma): > 100 µM | TGI (SK-OV-3 ovarian): > 100 µM | TGI (SN12C renal): > 100 µM | TGI (SNB-19 CNS): > 100 µM | TGI (SNB-75 CNS): 92.3 µM | TGI (SR leukemia): 48 µM | TGI (SW-620 colon): > 100 µM | TGI (T-47D breast): > 100 µM | TGI (TK-10 renal): > 100 µM | TGI (U251 CNS): > 100 µM | TGI (UACC-257 melanoma): > 100 µM | TGI (UO-31 renal): 95.1 µM

Reference: PubChem BioAssay (NCI)
